Reference: patent publication US12479843B2, “Spiro ring-containing quinazoline compounds” (WIGEN BIOMEDICINE TECHNOLOGY (SHANGHAI) CO., LTD., priority 2019, dated 2025)

Tests used:
pERK level in H358 cells = assay: pERK and ERK protein content assay in H358 cells (ELISA); format: cell-based; details: Homo sapiens, NCI-H358, compound 1 μM, 24 h, pERK/ERK ratio compared with DMSO group, read-out: Inhibition rate (%) of pERK level
How it was run: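 Percent inhibition of pERK relative to DMSO, from the ELISA pERK/ERK ratio in lysed H358 cells. Compound applied at 1 μM for 24 h after one day of growth.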

H358 cells = assay: Antiproliferative activity against H358 cells (Cell Titer Glow, ultra-low attachment plate); format: cell-based; details: Homo sapiens, NCI-H358, 72 h, 96-well ultra-low attachment plate, three days after addition of compound, Cell Titer Glow
Experimental: 2500 H358 cells were seeded in a 96-well ultra-low attachment plate (corning, 7007). After one day of growth, a serially diluted compound (a maximum concentration of 5 μM, 5-fold dilution, a total of five doses) was added. Three days after the addition of the compound, Cell Titer Glow (Promega, G9681) was added to evaluate pellet growth, and the IC50 value was calculated.

SMILES | IC50 (H358 cells) | inhibition at 1 µM (pERK level in H358 cells)
C=CC(=O)N1CC2(CCN(c3nc(N4CC5(C4)[C@H](OC)CCN5C)nc4c(OCC(F)(F)F)c(-c5c(C)ccc6[nH]ncc56)c(C5CC5)cc34)CC2)C1 [Compound 276] | < 300 nM | > 90%
C=CC(=O)N1CC2(CCN(c3nc(N4CC5(C4)[C@@H](N(C)C)CCN5C)nc4c(OCC(F)(F)F)c(-c5c(C)ccc6[nH]ncc56)c(C5CC5)cc34)CC2)C1 [Compound 277] | < 300 nM | > 90%
C=CC(=O)N1CC2(CCN(c3nc(N4CC5(C4)[C@H](N(C)C)CCN5C)nc4c(OCC(F)(F)F)c(-c5c(C)ccc6[nH]ncc56)c(C5CC5)cc34)CC2)C1 [Compound 278] | < 300 nM | > 90%
C=CC(=O)N1CC2(CCN(c3nc(N4CC5(CCCO5)C4)nc4c(OCC(F)(F)F)c(-c5c(C)ccc6[nH]ncc56)c(C5CC5)cc34)CC2)C1 [Compound 279] | < 300 nM | > 90%
C=CC(=O)N1CC2(CCN(c3nc(N4CC5(C4)OCC[C@@H]5N(C)C)nc4c(OCC(F)(F)F)c(-c5c(C)ccc6[nH]ncc56)c(C5CC5)cc34)CC2)C1 [Compound 280] | < 300 nM | > 90%
C=CC(=O)N1CC2(CCN(c3nc(N4CC5(C4)OCC[C@H]5N(C)C)nc4c(OCC(F)(F)F)c(-c5c(C)ccc6[nH]ncc56)c(C5CC5)cc34)CC2)C1 [Compound 281] | < 300 nM | > 90%
C=CC(=O)N1CC2(CCN(c3nc(N4CC[C@H](N5CCC(C)C5)C4)nc4c(OCC(F)(F)F)c(-c5c(C)ccc6[nH]ncc56)c(C5CC5)cc34)CC2)C1 (stereo partly shown) [Compound 298] | < 300 nM | > 90%
C=CC(=O)N1CC2(CCN(c3nc(N4CC[C@H](N5CC[C@@H](C)C5)C4)nc4c(OCC(F)(F)F)c(-c5c(C)ccc6[nH]ncc56)c(C5CC5)cc34)CC2)C1 [Compound 300] | < 300 nM | > 90%
C=CC(=O)N1CC2(CCN(c3nc(N4CC[C@@H](N5CC[C@@H](C)C5)C4)nc4c(OCC(F)(F)F)c(-c5c(C)ccc6[nH]ncc56)c(C5CC5)cc34)CC2)C1 [Compound 301] | < 300 nM | > 90%
C=CC(=O)N1CC2(CCN(c3nc(N4CC[C@H](N5C6CCC5CC6)C4)nc4c(OCC(F)(F)F)c(-c5c(C)ccc6[nH]ncc56)c(C5CC5)cc34)CC2)C1 [Compound 302] | < 300 nM | > 90%
C=CC(=O)N1CC2(CCN(c3nc(N4CC[C@@H](N5C6CCC5CC6)C4)nc4c(OCC(F)(F)F)c(-c5c(C)ccc6[nH]ncc56)c(C5CC5)cc34)CC2)C1 [Compound 303] | < 300 nM | > 90%
C=CC(=O)N1CC2(CCN(c3nc(N4CC5(CSC5)C4)nc4c(OCC(F)(F)F)c(-c5c(C)ccc6[nH]ncc56)c(C5CC5)cc34)CC2)C1 [Compound 304] | 300 to 1000 nM | 50 to 90%
C=CC(=O)N1CC2(CCN(c3nc(N4CC5(C4)C[S+]([O-])C5)nc4c(OCC(F)(F)F)c(-c5c(C)ccc6[nH]ncc56)c(C5CC5)cc34)CC2)C1 [Compound 305] | 300 to 1000 nM | 50 to 90%
C=CC(=O)N1CC2(CCN(c3nc(N4CC5(C4)CS(=O)(=O)C5)nc4c(OCC(F)(F)F)c(-c5c(C)ccc6[nH]ncc56)c(C5CC5)cc34)CC2)C1 [Compound 306] | < 300 nM | > 90%
C=CC(=O)N1CC2(CCN(c3nc(N4CC5(CCS(=O)(=O)CC5)C4)nc4c(OCC(F)(F)F)c(-c5c(C)ccc6[nH]ncc56)c(C5CC5)cc34)CC2)C1 [Compound 307] | < 300 nM | > 90%
C=CC(=O)N1CC2(CCN(c3nc(OC4CC5CCC4N5C)nc4c(OCC(F)(F)F)c(-c5c(C)ccc6[nH]ncc56)c(C5CC5)cc34)CC2)C1 (stereo not shown) [Compound 308] | < 300 nM | > 90%
C=CC(=O)N1CC2(CCN(c3nc(OC4CC5CCC4N5CCOC)nc4c(OCC(F)(F)F)c(-c5c(C)ccc6[nH]ncc56)c(C5CC5)cc34)CC2)C1 (stereo not shown) [Compound 309] | < 300 nM | > 90%
C=CC(=O)N1CC2(CCN(c3nc(OC4CCS(=O)(=O)C5(CC5)C4)nc4c(OCC(F)(F)F)c(-c5c(C)ccc6[nH]ncc56)c(C5CC5)cc34)CC2)C1 (stereo not shown) [Compound 310] | 300 to 1000 nM | 50 to 90%
C=CC(=O)N1CC2(CCN(c3nc(OC4CCS(=O)(=O)C(C)(C)C4)nc4c(OCC(F)(F)F)c(-c5c(C)ccc6[nH]ncc56)c(C5CC5)cc34)CC2)C1 (stereo not shown) [Compound 311] | < 300 nM | > 90%
C=CC(=O)N1CC2(CCN(c3nc(OC4CC5CCC(C4)S5(=O)=O)nc4c(OCC(F)(F)F)c(-c5c(C)ccc6[nH]ncc56)c(C5CC5)cc34)CC2)C1 (stereo not shown) [Compound 312] | < 300 nM | > 90%
C=CC(=O)N1CC2(CCN(c3nc(OC4C5CCC4CS(=O)(=O)C5)nc4c(OCC(F)(F)F)c(-c5c(C)ccc6[nH]ncc56)c(C5CC5)cc34)CC2)C1 (stereo not shown) [Compound 313] | < 300 nM | > 90%
C=CC(=O)N1CC2(CCN(c3nc(O[C@H]4C[C@@H]5C[C@H]4CS5(=O)=O)nc4c(OCC(F)(F)F)c(-c5c(C)ccc6[nH]ncc56)c(C5CC5)cc34)CC2)C1 [Compound 314] | < 300 nM | > 90%
C=CC(=O)N1CC2(CCN(c3nc(O[C@@H]4C[C@@H]5C[C@H]4CS5(=O)=O)nc4c(OCC(F)(F)F)c(-c5c(C)ccc6[nH]ncc56)c(C5CC5)cc34)CC2)C1 [Compound 315] | < 300 nM | > 90%
C=CC(=O)N1CC2(CCN(c3nc(OC4CCS(=O)(=O)CC4C)nc4c(OCC(F)(F)F)c(-c5c(C)ccc6[nH]ncc56)c(C5CC5)cc34)CC2)C1 (stereo not shown) [Compound 316] | < 300 nM | > 90%
C=CC(=O)N1CC2(CCN(c3nc(OC4C(C)CS(=O)(=O)CC4C)nc4c(OCC(F)(F)F)c(-c5c(C)ccc6[nH]ncc56)c(C5CC5)cc34)CC2)C1 (stereo not shown) [Compound 317] | < 300 nM | > 90%
C=CC(=O)N1CC2(CCN(c3nc(O[C@@H]4CCS(=O)(=O)C[C@H]4N(C)C)nc4c(OCC(F)(F)F)c(-c5c(C)ccc6[nH]ncc56)c(C5CC5)cc34)CC2)C1 [Compound 318] | < 300 nM | > 90%
C=CC(=O)N1CC2(CCN(c3nc(O[C@H]4CCS(=O)(=O)C[C@@H]4N(C)C)nc4c(OCC(F)(F)F)c(-c5c(C)ccc6[nH]ncc56)c(C5CC5)cc34)CC2)C1 [Compound 319] | < 300 nM | > 90%

Further lines, with some results ahead:

IC50 (H358 cells) | SMILES | inhibition at 1 µM (pERK level in H358 cells)
< 300 nM | C=CC(=O)N1CC2(CCN(c3nc(N4CC5(CC(O)C5)C4)nc4c(OCC(F)(F)F)c(-c5c(C)ccc6[nH]ncc56)c(C5CC5)cc34)CC2)C1 [Compound 282] | > 90%
300 to 1000 nM | C=CC(=O)N1CC2(CCN(c3nc(N4CC5(CC(OC)C5)C4)nc4c(OCC(F)(F)F)c(-c5c(C)ccc6[nH]ncc56)c(C5CC5)cc34)CC2)C1 [Compound 283] | 50 to 90%
< 300 nM | C=CC(=O)N1CC2(CCN(c3nc(N4CC5(CC(F)C5)C4)nc4c(OCC(F)(F)F)c(-c5c(C)ccc6[nH]ncc56)c(C5CC5)cc34)CC2)C1 [Compound 284] | > 90%
300 to 1000 nM | C=CC(=O)N1CC2(CCN(c3nc(N4CC5(CC(C#N)C5)C4)nc4c(OCC(F)(F)F)c(-c5c(C)ccc6[nH]ncc56)c(C5CC5)cc34)CC2)C1 [Compound 285] | 50 to 90%
< 300 nM | C=CC(=O)N1CC2(CCN(c3nc(N4CC5(CC(N(C)C)C5)C4)nc4c(OCC(F)(F)F)c(-c5c(C)ccc6[nH]ncc56)c(C5CC5)cc34)CC2)C1 [Compound 286] | > 90%
< 300 nM | C=CC(=O)N1CC2(CCN(c3nc(N4CC5(CC(N6CCC6)C5)C4)nc4c(OCC(F)(F)F)c(-c5c(C)ccc6[nH]ncc56)c(C5CC5)cc34)CC2)C1 [Compound 287] | > 90%
< 300 nM | C=CC(=O)N1CC2(CCN(c3nc(N4CC5(CC(N6CC(C)C6)C5)C4)nc4c(OCC(F)(F)F)c(-c5c(C)ccc6[nH]ncc56)c(C5CC5)cc34)CC2)C1 [Compound 288] | > 90%
< 300 nM | C=CC(=O)N1CC2(CCN(c3nc(N4CC5(CC(N6CCCC6)C5)C4)nc4c(OCC(F)(F)F)c(-c5c(C)ccc6[nH]ncc56)c(C5CC5)cc34)CC2)C1 [Compound 289] | > 90%
< 300 nM | C=CC(=O)N1CC2(CCN(c3nc(N4CC5(CC(N6CCC[C@@H]6C)C5)C4)nc4c(OCC(F)(F)F)c(-c5c(C)ccc6[nH]ncc56)c(C5CC5)cc34)CC2)C1 [Compound 290] | > 90%
< 300 nM | C=CC(=O)N1CC2(CCN(c3nc(N4CC5(CC(N6CCC[C@H]6C)C5)C4)nc4c(OCC(F)(F)F)c(-c5c(C)ccc6[nH]ncc56)c(C5CC5)cc34)CC2)C1 [Compound 291] | > 90%
< 300 nM | C=CC(=O)N1CC2(CCN(c3nc(N4CC5(CC(N6CCC(C)C6)C5)C4)nc4c(OCC(F)(F)F)c(-c5c(C)ccc6[nH]ncc56)c(C5CC5)cc34)CC2)C1 (stereo not shown) [Compound 292] | > 90%
< 300 nM | C=CC(=O)N1CC2(CCN(c3nc(N4CC5(CC(N6CC[C@@H](C)C6)C5)C4)nc4c(OCC(F)(F)F)c(-c5c(C)ccc6[nH]ncc56)c(C5CC5)cc34)CC2)C1 [Compound 293] | > 90%
< 300 nM | C=CC(=O)N1CC2(CCN(c3nc(N4CC[C@H](N5CC(C)C5)C4)nc4c(OCC(F)(F)F)c(-c5c(C)ccc6[nH]ncc56)c(C5CC5)cc34)CC2)C1 [Compound 296] | > 90%
< 300 nM | C=CC(=O)N1CC2(CCN(c3nc(N4CC[C@@H](N5CC(C)C5)C4)nc4c(OCC(F)(F)F)c(-c5c(C)ccc6[nH]ncc56)c(C5CC5)cc34)CC2)C1 [Compound 297] | > 90%
